Experimental data taken from PubChem BioAssay (NCI).
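In this assay, cells in 96-well plates receive the compound at five concentrations for 48 hours. Endpoints are linearly interpolated between the surrounding concentrations. TGI: total growth inhibition.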

Columns and labels:
Assay in all cases: NCI-60 cell line screen, 48 h
786-0 renal = tested on: 786-0 renal
A498 renal = tested on: A498 renal
A549 NSCLC = tested on: A549 NSCLC
ACHN renal = tested on: ACHN renal
BT-549 breast = tested on: BT-549 breast
CAKI-1 renal = tested on: CAKI-1 renal
CCRF-CEM leukemia = tested on: CCRF-CEM leukemia
COLO 205 colon = tested on: COLO 205 colon
DU-145 prostate = tested on: DU-145 prostate
EKVX NSCLC = tested on: EKVX NSCLC
HCC-2998 colon = tested on: HCC-2998 colon
HCT-116 colon = tested on: HCT-116 colon
HCT-15 colon = tested on: HCT-15 colon
HL-60(TB) leukemia = tested on: HL-60(TB) leukemia
HOP-62 NSCLC = tested on: HOP-62 NSCLC
HOP-92 NSCLC = tested on: HOP-92 NSCLC
HS 578T breast = tested on: HS 578T breast
HT29 colon = tested on: HT29 colon
IGROV1 ovarian = tested on: IGROV1 ovarian
K-562 leukemia = tested on: K-562 leukemia
KM12 colon = tested on: KM12 colon
LOX IMVI melanoma = tested on: LOX IMVI melanoma
M14 melanoma = tested on: M14 melanoma
MCF7 breast = tested on: MCF7 breast
MDA-MB-231 breast = tested on: MDA-MB-231 breast
MDA-MB-435 = tested on: MDA-MB-435
MDA-N = tested on: MDA-N
MOLT-4 leukemia = tested on: MOLT-4 leukemia
NCI-H226 lung = tested on: NCI-H226 lung
NCI-H23 lung = tested on: NCI-H23 lung
NCI-H460 lung = tested on: NCI-H460 lung
NCI-H522 lung = tested on: NCI-H522 lung
NCI/ADR-RES ovarian = tested on: NCI/ADR-RES ovarian
OVCAR-3 ovarian = tested on: OVCAR-3 ovarian
OVCAR-4 ovarian = tested on: OVCAR-4 ovarian
OVCAR-5 ovarian = tested on: OVCAR-5 ovarian
OVCAR-8 ovarian = tested on: OVCAR-8 ovarian
PC-3 prostate = tested on: PC-3 prostate
RXF 393 renal = tested on: RXF 393 renal
SF-268 CNS = tested on: SF-268 CNS
SF-295 CNS = tested on: SF-295 CNS
SF-539 CNS = tested on: SF-539 CNS
SK-MEL-2 melanoma = tested on: SK-MEL-2 melanoma
SK-MEL-28 melanoma = tested on: SK-MEL-28 melanoma
SK-MEL-5 melanoma = tested on: SK-MEL-5 melanoma
SK-OV-3 ovarian = tested on: SK-OV-3 ovarian
SN12C renal = tested on: SN12C renal
SNB-19 CNS = tested on: SNB-19 CNS
SR leukemia = tested on: SR leukemia
SW-620 colon = tested on: SW-620 colon
T-47D breast = tested on: T-47D breast
TK-10 renal = tested on: TK-10 renal
U251 CNS = tested on: U251 CNS
UACC-257 melanoma = tested on: UACC-257 melanoma
UACC-62 melanoma = tested on: UACC-62 melanoma
UO-31 renal = tested on: UO-31 renal
MALME-3M melanoma = tested on: MALME-3M melanoma
RPMI-8226 leukemia = tested on: RPMI-8226 leukemia
SNB-75 CNS = tested on: SNB-75 CNS

Nc1ccc2c(c1)S(=O)(=O)c1cc(O)ccc1O2
TGI (786-0 renal): > 100 µM
TGI (A498 renal): > 100 µM
TGI (A549 NSCLC): > 100 µM
TGI (ACHN renal): > 100 µM
TGI (BT-549 breast): > 100 µM
TGI (CAKI-1 renal): > 100 µM
TGI (CCRF-CEM leukemia): > 100 µM
TGI (COLO 205 colon): > 100 µM
TGI (DU-145 prostate): > 100 µM
TGI (EKVX NSCLC): > 100 µM
TGI (HCC-2998 colon): > 100 µM
TGI (HCT-116 colon): > 100 µM
TGI (HCT-15 colon): > 100 µM
TGI (HL-60(TB) leukemia): > 100 µM
TGI (HOP-62 NSCLC): > 100 µM
TGI (HOP-92 NSCLC): > 100 µM
TGI (HS 578T breast): > 100 µM
TGI (HT29 colon): > 100 µM
TGI (IGROV1 ovarian): > 100 µM
TGI (K-562 leukemia): > 100 µM
TGI (KM12 colon): > 100 µM
TGI (LOX IMVI melanoma): > 100 µM
TGI (M14 melanoma): > 100 µM
TGI (MCF7 breast): > 100 µM
TGI (MDA-MB-231 breast): > 100 µM
TGI (MDA-MB-435): > 100 µM
TGI (MDA-N): > 100 µM
TGI (MOLT-4 leukemia): > 100 µM
TGI (NCI-H226 lung): > 100 µM
TGI (NCI-H23 lung): > 100 µM
TGI (NCI-H460 lung): > 100 µM
TGI (NCI-H522 lung): > 100 µM
TGI (NCI/ADR-RES ovarian): > 100 µM
TGI (OVCAR-3 ovarian): > 100 µM
TGI (OVCAR-4 ovarian): > 100 µM
TGI (OVCAR-5 ovarian): > 100 µM
TGI (OVCAR-8 ovarian): > 100 µM
TGI (PC-3 prostate): > 100 µM
TGI (RXF 393 renal): > 100 µM
TGI (SF-268 CNS): > 100 µM
TGI (SF-295 CNS): > 100 µM
TGI (SF-539 CNS): > 100 µM
TGI (SK-MEL-2 melanoma): > 100 µM
TGI (SK-MEL-28 melanoma): > 100 µM
TGI (SK-MEL-5 melanoma): > 100 µM
TGI (SK-OV-3 ovarian): > 100 µM
TGI (SN12C renal): > 100 µM
TGI (SNB-19 CNS): > 100 µM
TGI (SR leukemia): > 100 µM
TGI (SW-620 colon): > 100 µM
TGI (T-47D breast): > 100 µM
TGI (TK-10 renal): > 100 µM
TGI (U251 CNS): > 100 µM
TGI (UACC-257 melanoma): > 100 µM
TGI (UACC-62 melanoma): > 100 µM
TGI (UO-31 renal): > 100 µM

O=C(CCN1CCCCC1)Nc1ccc2sc3ccccc3c(=O)c2n1
TGI (786-0 renal): 28.5 µM
TGI (A549 NSCLC): 35.3 µM
TGI (ACHN renal): 52.7 µM
TGI (BT-549 breast): 37.2 µM
TGI (CAKI-1 renal): 33.6 µM
TGI (CCRF-CEM leukemia): 54 µM
TGI (COLO 205 colon): 24.5 µM
TGI (DU-145 prostate): 46.1 µM
TGI (EKVX NSCLC): 84 µM
TGI (HCC-2998 colon): 30 µM
TGI (HCT-116 colon): 22.9 µM
TGI (HCT-15 colon): 46.6 µM
TGI (HL-60(TB) leukemia): 19.2 µM
TGI (HOP-62 NSCLC): 29.8 µM
TGI (HOP-92 NSCLC): 1.79 µM
TGI (HS 578T breast): 41.5 µM
TGI (HT29 colon): > 100 µM
TGI (IGROV1 ovarian): 31.3 µM
TGI (K-562 leukemia): 28.6 µM
TGI (KM12 colon): 34 µM
TGI (LOX IMVI melanoma): 24.8 µM
TGI (M14 melanoma): 27.3 µM
TGI (MALME-3M melanoma): 43.6 µM
TGI (MCF7 breast): 57.5 µM
TGI (MDA-MB-231 breast): 44.4 µM
TGI (MDA-MB-435): 25.8 µM
TGI (MDA-N): 28.9 µM
TGI (MOLT-4 leukemia): 18.8 µM
TGI (NCI-H460 lung): 42.1 µM
TGI (NCI-H522 lung): 25.9 µM
TGI (NCI/ADR-RES ovarian): 73.9 µM
TGI (OVCAR-3 ovarian): 33.7 µM
TGI (OVCAR-4 ovarian): 41.9 µM
TGI (OVCAR-5 ovarian): 43 µM
TGI (PC-3 prostate): 30.3 µM
TGI (RPMI-8226 leukemia): 24.8 µM
TGI (SF-268 CNS): 43.3 µM
TGI (SF-295 CNS): 45.7 µM
TGI (SF-539 CNS): 31.6 µM
TGI (SK-MEL-28 melanoma): 33.8 µM
TGI (SK-MEL-5 melanoma): 61.9 µM
TGI (SK-OV-3 ovarian): 48.7 µM
TGI (SN12C renal): 52.4 µM
TGI (SNB-19 CNS): 47.7 µM
TGI (SNB-75 CNS): 23 µM
TGI (SR leukemia): 39 µM
TGI (SW-620 colon): 33.2 µM
TGI (T-47D breast): 93.6 µM
TGI (TK-10 renal): 46.9 µM
TGI (U251 CNS): 30.3 µM
TGI (UACC-257 melanoma): 46.3 µM
TGI (UACC-62 melanoma): 30.1 µM
TGI (UO-31 renal): 22.1 µM

COC(=O)C(CCC1C=CN(S(=O)(=O)c2ccc(C)cc2)C1)N=Cc1ccccc1 (configuration not stated)
TGI (786-0 renal): > 100 µM
TGI (A498 renal): > 100 µM
TGI (A549 NSCLC): > 100 µM
TGI (ACHN renal): > 100 µM
TGI (BT-549 breast): > 100 µM
TGI (CAKI-1 renal): > 100 µM
TGI (CCRF-CEM leukemia): > 100 µM
TGI (COLO 205 colon): 41.1 µM
TGI (DU-145 prostate): > 100 µM
TGI (EKVX NSCLC): > 100 µM
TGI (HCC-2998 colon): > 100 µM
TGI (HCT-116 colon): > 100 µM
TGI (HCT-15 colon): > 100 µM
TGI (HL-60(TB) leukemia): 22.1 µM
TGI (HOP-62 NSCLC): > 100 µM
TGI (HOP-92 NSCLC): > 100 µM
TGI (HS 578T breast): > 100 µM
TGI (HT29 colon): > 100 µM
TGI (IGROV1 ovarian): > 100 µM
TGI (K-562 leukemia): > 100 µM
TGI (KM12 colon): > 100 µM
TGI (LOX IMVI melanoma): > 100 µM
TGI (M14 melanoma): > 100 µM
TGI (MCF7 breast): > 100 µM
TGI (MDA-MB-231 breast): > 100 µM
TGI (MDA-MB-435): > 100 µM
TGI (MDA-N): > 100 µM
TGI (MOLT-4 leukemia): > 100 µM
TGI (NCI-H226 lung): > 100 µM
TGI (NCI-H23 lung): 63 µM
TGI (NCI-H460 lung): > 100 µM
TGI (NCI-H522 lung): > 100 µM
TGI (NCI/ADR-RES ovarian): > 100 µM
TGI (OVCAR-3 ovarian): > 100 µM
TGI (OVCAR-4 ovarian): > 100 µM
TGI (OVCAR-5 ovarian): > 100 µM
TGI (OVCAR-8 ovarian): > 100 µM
TGI (PC-3 prostate): > 100 µM
TGI (RPMI-8226 leukemia): 82 µM
TGI (RXF 393 renal): > 100 µM
TGI (SF-268 CNS): > 100 µM
TGI (SF-295 CNS): > 100 µM
TGI (SF-539 CNS): > 100 µM
TGI (SK-MEL-2 melanoma): 49.6 µM
TGI (SK-MEL-28 melanoma): > 100 µM
TGI (SK-MEL-5 melanoma): 53.9 µM
TGI (SK-OV-3 ovarian): > 100 µM
TGI (SN12C renal): > 100 µM
TGI (SNB-19 CNS): > 100 µM
TGI (SNB-75 CNS): > 100 µM
TGI (SR leukemia): 61.1 µM
TGI (SW-620 colon): > 100 µM
TGI (T-47D breast): > 100 µM
TGI (TK-10 renal): > 100 µM
TGI (U251 CNS): > 100 µM
TGI (UACC-257 melanoma): > 100 µM
TGI (UACC-62 melanoma): > 100 µM
TGI (UO-31 renal): > 100 µM
